Test results reported in paper PMC7764991, “Chronic Plasma Exposure to Kinase Inhibitors in Patients with Oncogene-Addicted Non-Small Cell Lung Cancer” (Cancers, 2020).

How the values were obtained:
[1] = cited from earlier work; for Proposed target for TDM, Cmin: Table S1, plasma trough level, ref supplementary refs 1-11, per drug; for Target value of residual plasma concentration defining 'optimal concentration': recommended for TDM
[2] = cited from earlier work
[3] = Table S2; ref supplementary refs 9-18, per drug; cited from earlier work
[4] = Residual plasma concentration of kinase inhibitors by UPLC-MS/MS in NSCLC patients, classed optimal or suboptimal
Protocol: Patients with advanced NSCLC harboring oncogenic drivers, such as an EGFR-mutation, BRAF^V600E-mutation, ALK-fusion, or ROS1-fusion, treated with KI therapy for at least three months were eligible. […] KI plasma concentrations were evaluated in blood samples collected during therapy, and at the time of clinical response or relapse. Chronic plasma exposure was defined as at least three months of KI therapy. Clinical and pathological data were extracted from electronic medical records. Radiological assessments were performed every 8 or 12 weeks per Response Evaluation Criteria in Solid Tumors (RECIST) v1.1 and per the treating physician’s discretion.
Residual plasma concentrations of drugs were measured in blood samples using ultra-performance liquid chromatography coupled with tandem mass spectrometry validated methods. A residual estimate based on pharmacokinetic and population pharmacokinetic analysis parameters (Table S2) was made for samples not collected at the time of the residual sampling.
Precise measurement of trough concentrations is challenging in routine practice, due to the constraints of the logistics of blood collection at a precise time and the fact that the timing of administration varies from patient to patient. We defined three situations according to the dosing time with respect to the last dose: Optimal, evaluable, and non-interpretable.
• Optimal: The optimal concentration corresponds to the true residual plasma concentration at a steady state, in the blood collection performed immediately before the next administration. • Evaluable: The residual plasma concentration is estimated by an extrapolation method from known pharmacokinetic parameters (distribution volume, half-life, clearance) and from data obtained in population pharmacokinetic models. This estimate of standard trough concentration (Cmin, std) is only possible when blood samples were collected at steady state or during the terminal elimination phase of the drug, since in this phase, the elimination rate is linear. • - C (min, std) = C(t) * 0.5 ^ (Delta (t)/t1/2) • - C (min, std) = C(t) * exp (k(e) x Delta (t))
• 3. Not interpretable: Extrapolation is not feasible for samples taken during the plasma peak period.

[5] = studies of KI concentrations for other cancers; cited from earlier work
[6] = parameters: method as in PMID 22038662; conditions: hepatocellular carcinoma patients, plasma measured every 15 days; cited from earlier work
[7] = samples after at least three months of KI, % of the optimal group (n = 25)
[8] = samples after at least three months of KI, % of the suboptimal group (n = 26)

Compound	Proposed target for TDM, Cmin [1] [ng/mL]	Target value of residual plasma concentration defining 'optimal concentration' [1] [ng/mL]	Interaction with proton pump inhibitors [2]	Bioavailability [3] [%]	Distribution volume [3] [L]	Hepatic elimination [3] [%]	Metabolic pathway [3]	Tmax [3] [h]	Samples with optimal concentration [4, 7]	Samples with suboptimal concentration [4, 8]	Half-life [3] [h]	Suboptimal concentration rate [5] [%]	Effect of cigarette smoke on plasmatic exposure ([2]; cigarette smoke induces CYP1A1)	Samples with optimal concentration ([4]; human, in vivo)	Samples with suboptimal concentration ([4]; human, in vivo)	Exposure after three months of treatment compared with one month [6]
C[C@@H](Oc1cc(-c2cnn(C3CCNCC3)c2)cnc1N)c1c(Cl)ccc(F)c1Cl [Crizotinib, crizotinib]	≥ 235	> 235	not relevant	43	1772	63	CYP3A4	4 to 6	2 (8%) No. (%)	5 (19.5%) No. (%)						
CC(C)(C)c1nc(-c2cccc(NS(=O)(=O)c3c(F)cccc3F)c2F)c(-c2ccnc(N)n2)s1 [Dabrafenib, dabrafenib]	≥ 96.1	> 96.1	not relevant		46	73	CYP2C8, 3A4		2 (8%) No. (%)	3 (11.5%) No. (%)	8					
C#Cc1cccc(Nc2ncnc3cc(OCCOC)c(OCCOC)cc23)c1 [Erlotinib, erlotinib]	≥ 500	> 500	decreasing their bioavailability and the plasmatic exposure	59	232	90					36.2	11	significantly decreases	7 (28%) No. (%)	6 (23%) No. (%)	
COc1cc2ncnc(Nc3ccc(F)c(Cl)c3)c2cc1OCCCN1CCOCC1 [Gefitinib, gefitinib]	≥ 200	> 200		59				3 to 7			41			8 (32%) No. (%)	3 (11.5%) No. (%)	
C=CC(=O)Nc1cc(Nc2nccc(-c3cn(C)c4ccccc34)n2)c(OC)cc1N(C)CCN(C)C [Osimertinib, osimertinib]	≥ 166	> 166		70				6			44			4 (16%) No. (%)	6 (23%) No. (%)	
CC(=O)Nc1cccc(-n2c(=O)n(C3CC3)c(=O)c3c(Nc4ccc(I)cc4F)n(C)c(=O)c(C)c32)c1 [Trametinib, trametinib]	≥ 10.6	> 10.6	not relevant			80	Deacetylation				127			2 (8%) No. (%)	3 (11.5%) No. (%)	
CNC(=O)c1cc(Oc2ccc(NC(=O)Nc3ccc(Cl)c(C(F)(F)F)c3)cc2)ccn1 [sorafenib]																lower than after one month of treatment
CCN(CC)CCNC(=O)c1c(C)[nH]c(/C=C2\C(=O)Nc3ccc(F)cc32)c1C [sunitinib]												49				
